Literature values, collected in PMC2946453 (Journal of pharmaceutical and biomedical analysis, 2010).
Where two headings read alike, the source gives them in different places.

What was measured:
[1] = tested on: COX-1; conditions: read-out: IC50 COX-1; bovine aortic coronary endothelial cells
[2] = tested on: human COX-2; conditions: read-out: IC50 COX-2
[3] = tested on: COX-1; conditions: read-out: IC50 COX-1; form of COX not mentioned
[4] = tested on: COX-2; conditions: read-out: IC50 COX-2; form of COX not mentioned
[5] = molecular target: T1, ovine COX-1 (Ovis aries, UniProt P05979); conditions: read-out: Km ovine COX-1; radiolabeled arachidonic acid
T1 sequence (P05979 25-600): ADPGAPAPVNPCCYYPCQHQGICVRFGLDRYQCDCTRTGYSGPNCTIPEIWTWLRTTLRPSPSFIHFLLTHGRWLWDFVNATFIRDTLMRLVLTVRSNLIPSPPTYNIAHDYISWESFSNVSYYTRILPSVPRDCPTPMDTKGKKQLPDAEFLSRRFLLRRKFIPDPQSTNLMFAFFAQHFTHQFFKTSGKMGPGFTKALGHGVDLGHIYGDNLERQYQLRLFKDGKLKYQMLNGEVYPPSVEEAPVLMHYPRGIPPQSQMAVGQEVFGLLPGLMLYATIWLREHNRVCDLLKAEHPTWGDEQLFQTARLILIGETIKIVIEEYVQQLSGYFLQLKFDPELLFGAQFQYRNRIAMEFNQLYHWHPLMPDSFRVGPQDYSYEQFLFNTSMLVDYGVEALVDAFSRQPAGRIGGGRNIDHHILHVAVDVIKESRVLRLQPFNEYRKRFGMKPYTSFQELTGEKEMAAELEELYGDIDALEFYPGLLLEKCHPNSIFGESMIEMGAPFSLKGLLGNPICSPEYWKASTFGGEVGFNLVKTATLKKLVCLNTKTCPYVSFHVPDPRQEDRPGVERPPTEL

In the case of Oc1ccc(/C=C/c2cc(O)cc(O)c2)cc1 [Resveratrol], the IC50 [3] is listed as 830 ± 440 nM and the IC50 [4] is listed as 990 ± 400 nM.
In the case of CCCCC/C=C\C/C=C\C/C=C\C/C=C\CCCC(=O)O [arachidonic acid], the Km [5] is given as 3.7 ± 0.5 µM.
